Results on 1 compound are retold here after ChEMBL document CHEMBL1212711, “Mechanistic and functional insights into fatty acid activation in Mycobacterium tuberculosis” (Nat Chem Biol, 2009).

In assay [1] the test system is Mycobacterium tuberculosis H37Rv. In words: Selectivity of Mycobacterium tuberculosis H37Rv FAAL28 deletion mutant over wild type FACL1.
The test system is the same in assay [2]. Briefly: Activity at Mycobacterium tuberculosis H37Rv FACL19 AS mutant containing 15 amino acid stretch of alanine and serine residues assessed as acy-CoA formation by radio-TLC assay.
Assay [3] shares this test system. In words: Activity at Mycobacterium tuberculosis H37Rv FAAL28 deletion mutant assessed as conversion of lauroyl-AMP to lauryl-CoA by radio-TLC assay.
The test system is the same in assay [4]. In words: Activity at Mycobacterium tuberculosis H37Rv FACL19 i mutant containing FAAL28 (342-372) residues instead of FACL6 (362-376) residues assessed as acy-CoA formation by radio-TLC assay.

Activity calls are given as the source filed them. No cut-off for these calls is given here.

In assay [1], `CC(C)(COP(=O)(O)OP(=O)(O)OC[C@H]1O[C@@H](n2cnc3c(N)ncnc32)[C@H](O)[C@@H]1OP(=O)(O)O)[C@@H](O)C(=O)NCCC(=O)NCCS` [COENZYME_A] registered a fold change (FC) of 10. Further, the outcome in assay [2] and in assay [4] was inactive. In addition, in assay [3], the catalytic constant (kcat) (commonly the maximal rate divided by the concentration of active sites) was 19500 s⁻¹.
